According to ChEMBL document CHEMBL4673395, “Discovery of PIPE-359, a Brain-Penetrant, Selective M Receptor Antagonist with Robust Efficacy in Murine MOG-EAE” (ACS Med Chem Lett, 2021):
The source made the active and inactive calls. No cut-off for these calls is given here.

Legend:
[1] = molecular target: T1, Muscarinic acetylcholine receptor M1 (Homo sapiens, UniProt P11229); assay: Antagonist activity at human recombinant muscarinic receptor M1 expressed in CHO-K1 cells assessed as EC80 acetylcholine-induced calcium flux incubated for 30 mins; format: functional, cell-based
T1 sequence (P11229 whole entry): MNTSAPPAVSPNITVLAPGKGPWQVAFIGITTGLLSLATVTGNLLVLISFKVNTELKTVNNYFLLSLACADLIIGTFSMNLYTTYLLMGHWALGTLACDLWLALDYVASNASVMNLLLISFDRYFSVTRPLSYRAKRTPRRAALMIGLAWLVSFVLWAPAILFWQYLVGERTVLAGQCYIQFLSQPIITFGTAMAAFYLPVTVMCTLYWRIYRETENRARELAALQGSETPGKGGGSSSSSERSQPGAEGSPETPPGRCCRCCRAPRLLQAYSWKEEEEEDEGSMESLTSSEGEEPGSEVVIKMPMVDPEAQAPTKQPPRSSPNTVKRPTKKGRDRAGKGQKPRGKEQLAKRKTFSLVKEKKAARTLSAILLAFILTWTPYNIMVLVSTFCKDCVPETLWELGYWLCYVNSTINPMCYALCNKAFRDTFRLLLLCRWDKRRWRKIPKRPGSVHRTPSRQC

[2] = Metabolic stability in rat liver microsomes assessed as parent compound remaining at 1 uM measured at 15 mins by LC-MS/MS analysis; format: ADME, Microsome; details: read-out: Stabilty
[3] = molecular target: T2, Muscarinic acetylcholine receptor M3 (Homo sapiens, UniProt P20309); assay: Antagonist activity at human recombinant muscarinic receptor M3 expressed in CHO-K1 cells assessed as EC80 acetylcholine-induced calcium flux incubated for 30 mins; format: functional, cell-based
[4] = molecular target: T3, Muscarinic acetylcholine receptor M2 (Homo sapiens, UniProt P08172); assay: Antagonist activity at human recombinant muscarinic receptor M2 expressed in CHO-K1 cells assessed as EC80 acetylcholine-induced calcium flux incubated for 30 mins; format: functional, cell-based
T3 sequence (P08172 whole entry): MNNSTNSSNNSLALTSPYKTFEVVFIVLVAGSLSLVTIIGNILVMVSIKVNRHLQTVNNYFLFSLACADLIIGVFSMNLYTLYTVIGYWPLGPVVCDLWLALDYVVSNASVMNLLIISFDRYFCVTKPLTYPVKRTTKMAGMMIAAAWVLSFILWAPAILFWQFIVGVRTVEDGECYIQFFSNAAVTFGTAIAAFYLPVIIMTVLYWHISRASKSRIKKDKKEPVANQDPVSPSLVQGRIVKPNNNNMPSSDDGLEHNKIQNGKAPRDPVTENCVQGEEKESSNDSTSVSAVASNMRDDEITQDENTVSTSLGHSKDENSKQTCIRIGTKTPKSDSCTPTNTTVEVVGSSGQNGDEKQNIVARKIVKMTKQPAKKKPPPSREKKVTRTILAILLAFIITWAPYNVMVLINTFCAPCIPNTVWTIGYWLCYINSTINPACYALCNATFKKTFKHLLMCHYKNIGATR

[5] = Apparant permeability across apical to basolateral side in dog MDCK-MDR1 cells; format: ADME, cell-based, Canis lupus familiaris
[6] = system: Mus musculus; assay: In vivo receptor occupancy at muscarinic M1 receptor in myelin oligodendrocyte glycoprotein (MOG)-induced experimental autoimmune encephalitis C57BL/6 mouse model assessed as decrease in occupancy at 30 mg/kg, po measured up to 8 hrs; format: functional, organism-based; details: time hrs <=8
[7] = Drug uptake in rat brain at 10 mg/kg, po measured after 2 hrs by LC-MS/MS; format: ADME, organism-based; details: read-out: Drug uptake
[8] = Fraction unbound in rat brain at 30 mg/kg, po measured after 24 hrs; format: ADME, organism-based; details: in vivo
[9] = Fraction unbound in rat plasma at 30 mg/kg, po measured after 24 hrs; format: ADME, organism-based; details: in vivo
[10] = Fraction unbound in rat plasma at 30 mg/kg, po measured after 8 hrs; format: ADME, organism-based; details: in vivo
[11] = Unbound fraction in rat brain at 10 mg/kg, po measured after 2 hrs by LC-MS/MS; format: ADME, organism-based; details: in vivo
[12] = In vivo receptor occupancy at muscarinic M1 receptor in myelin oligodendrocyte glycoprotein (MOG)-induced experimental autoimmune encephalitis C57BL/6 mouse model assessed as decrease in occupancy at 30 mg/kg, po measured after 24 hrs; format: functional; design: Activity: scale not given: the % may be the effect or the level left
[13] = Oral bioavailability in rat at 10 mg/kg; format: ADME, organism-based; details: in vivo
[14] = AUC in rat at 10 mg/kg, po; format: ADME, organism-based; design: dose 10 mg/kg; details: in vivo
[15] = AUC in rat at 2 mg/kg, iv; format: ADME, organism-based; design: dose 2 mg/kg; details: in vivo
[16] = Half life in rat at 2 mg/kg, iv; format: ADME, organism-based; details: in vivo
[17] = Unbound clearance in rat at 10 mg/kg, po; format: ADME, organism-based; details: in vivo
[18] = Clearance in rat at 2 mg/kg, iv; format: ADME, organism-based; details: in vivo
[19] = molecular target: Cytochrome P450 3A4 (Homo sapiens, UniProt P08684); assay: Inhibition of human CYP3A4 in pooled human liver microsomes using midazolam as substrate incubated for 5 mins by LC-MS/MS; format: ADME
[20] = molecular target: Cytochrome P450 2D6 (Homo sapiens, UniProt P10635); assay: Inhibition of human CYP2D6 in pooled human liver microsomes using dextromethorphan as substrate incubated for 20 mins by LC-MS/MS; format: ADME
[21] = molecular target: Cytochrome P450 2C9 (Homo sapiens, UniProt P11712); assay: Inhibition of human CYP2C9 in pooled human liver microsomes using diclofenac as substrate incubated for 5 mins by LC-MS/MS; format: ADME
[22] = Plasma protein binding in mouse assessed as unbound fraction; format: ADME, cell-free
[23] = Plasma protein binding in rat assessed as unbound fraction; format: ADME, cell-free
[24] = Metabolic stability in mouse liver microsomes assessed as intrinsic clearance at 1 uM measured up to 60 mins by LC-MS/MS analysis; format: ADME, Microsome; details: read-out: CLH
[25] = Metabolic stability in rat liver microsomes assessed as intrinsic clearance at 1 uM measured up to 60 mins by LC-MS/MS analysis; format: ADME, Microsome; details: read-out: CLH
[26] = molecular target: T2, Muscarinic acetylcholine receptor M3; assay: Displacement of [3H]NMS from human recombinant muscarinic receptor M3 expressed in CHO-K1 cell membranes assessed as inhibition constant incubated for 1 hr by Radioligand binding assay
[27] = molecular target: Muscarinic acetylcholine receptor M2 (Homo sapiens, UniProt P08172); assay: Displacement of [3H]NMS from human recombinant muscarinic receptor M2 expressed in CHO-K1 cell membranes assessed as inhibition constant incubated for 1 hr by Radioligand binding assay
[28] = molecular target: T1, Muscarinic acetylcholine receptor M1; assay: Displacement of [3H]NMS from human recombinant muscarinic receptor M1 expressed in CHO-K1 cell membranes assessed as inhibition constant incubated for 1 hr by Radioligand binding assay
[29] = Metabolic stability in human liver microsomes assessed as intrinsic clearance at 1 uM measured up to 60 mins by LC-MS/MS analysis; format: ADME, Microsome; details: read-out: CLH

T2 sequence (P20309 whole entry): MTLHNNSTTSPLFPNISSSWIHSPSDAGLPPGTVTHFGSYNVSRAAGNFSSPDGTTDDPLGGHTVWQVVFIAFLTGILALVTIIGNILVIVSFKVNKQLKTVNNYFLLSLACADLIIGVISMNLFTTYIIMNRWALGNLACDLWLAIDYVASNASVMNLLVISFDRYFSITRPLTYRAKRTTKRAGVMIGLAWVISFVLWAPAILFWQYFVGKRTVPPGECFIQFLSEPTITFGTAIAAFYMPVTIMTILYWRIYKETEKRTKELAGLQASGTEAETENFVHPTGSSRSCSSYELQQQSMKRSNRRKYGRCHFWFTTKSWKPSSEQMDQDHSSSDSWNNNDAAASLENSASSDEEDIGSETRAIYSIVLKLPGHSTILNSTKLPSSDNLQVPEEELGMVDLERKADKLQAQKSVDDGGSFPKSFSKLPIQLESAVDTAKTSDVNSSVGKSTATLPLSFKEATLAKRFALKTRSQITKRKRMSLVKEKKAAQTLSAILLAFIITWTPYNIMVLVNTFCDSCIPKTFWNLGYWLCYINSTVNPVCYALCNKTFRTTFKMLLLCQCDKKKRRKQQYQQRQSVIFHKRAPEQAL
Cytochrome P450 2D6, sequence (P10635 whole entry): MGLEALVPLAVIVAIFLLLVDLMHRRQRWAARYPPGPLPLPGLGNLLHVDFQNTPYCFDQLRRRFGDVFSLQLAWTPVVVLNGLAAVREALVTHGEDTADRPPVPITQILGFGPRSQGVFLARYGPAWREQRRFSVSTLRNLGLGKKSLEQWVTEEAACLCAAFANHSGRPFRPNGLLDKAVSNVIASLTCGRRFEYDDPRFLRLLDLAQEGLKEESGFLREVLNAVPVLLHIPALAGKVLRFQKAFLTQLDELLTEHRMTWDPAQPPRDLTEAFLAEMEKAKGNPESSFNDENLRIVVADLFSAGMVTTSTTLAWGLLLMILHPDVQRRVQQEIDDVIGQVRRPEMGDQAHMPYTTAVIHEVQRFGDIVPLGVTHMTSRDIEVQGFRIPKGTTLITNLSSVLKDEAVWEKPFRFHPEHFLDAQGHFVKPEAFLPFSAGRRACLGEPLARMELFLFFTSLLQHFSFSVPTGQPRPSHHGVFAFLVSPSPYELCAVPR
Cytochrome P450 3A4, sequence (P08684 whole entry): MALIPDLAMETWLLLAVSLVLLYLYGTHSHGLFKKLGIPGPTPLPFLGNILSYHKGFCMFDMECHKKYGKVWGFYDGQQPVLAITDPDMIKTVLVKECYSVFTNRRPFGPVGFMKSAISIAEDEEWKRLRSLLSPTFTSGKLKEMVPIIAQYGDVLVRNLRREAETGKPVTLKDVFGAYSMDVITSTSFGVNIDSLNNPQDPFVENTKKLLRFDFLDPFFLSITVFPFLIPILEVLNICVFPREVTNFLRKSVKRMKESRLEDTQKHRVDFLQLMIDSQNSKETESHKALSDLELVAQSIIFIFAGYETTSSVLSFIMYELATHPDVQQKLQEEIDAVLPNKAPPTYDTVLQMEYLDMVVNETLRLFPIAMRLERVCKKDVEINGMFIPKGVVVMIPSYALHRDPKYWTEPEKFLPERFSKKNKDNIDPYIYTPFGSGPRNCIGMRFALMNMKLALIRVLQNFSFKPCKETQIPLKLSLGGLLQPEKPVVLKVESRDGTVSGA
Cytochrome P450 2C9, sequence (P11712 whole entry): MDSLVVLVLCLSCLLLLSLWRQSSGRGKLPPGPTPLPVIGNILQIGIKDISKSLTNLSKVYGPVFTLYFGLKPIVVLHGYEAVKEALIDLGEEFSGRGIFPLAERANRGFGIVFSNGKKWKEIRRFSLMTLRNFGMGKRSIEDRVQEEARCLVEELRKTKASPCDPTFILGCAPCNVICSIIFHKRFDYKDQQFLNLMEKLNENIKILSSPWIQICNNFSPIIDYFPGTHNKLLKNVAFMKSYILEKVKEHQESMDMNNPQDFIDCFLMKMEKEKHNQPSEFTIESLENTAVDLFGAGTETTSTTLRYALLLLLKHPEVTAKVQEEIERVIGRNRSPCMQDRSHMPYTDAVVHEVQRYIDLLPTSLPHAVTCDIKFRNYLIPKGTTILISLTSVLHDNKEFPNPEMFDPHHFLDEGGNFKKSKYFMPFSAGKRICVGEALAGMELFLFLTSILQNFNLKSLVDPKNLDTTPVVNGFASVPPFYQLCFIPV

CC1CN(c2ccc(C#N)cn2)CCN1C(=O)CCS(=O)(=O)c1cccc2ncsc12 (racemic)
IC50 ([1]; read-out: IC50): 22 nM

N#Cc1cc(N2CCN(C(=O)CCCc3cccc4ncccc34)CC2)ccn1
IC50 ([1]; read-out: IC50): 65 nM

O=C(CCCc1cccc2ncccc12)N1CCN(c2ccncc2)CC1
IC50 ([1]; read-out: IC50): 24 nM

O=C(CCS(=O)(=O)c1cccc2ncsc12)N1CCN(c2ccc(Cl)cn2)CC1
remaining at 0.25 h, 1 µM [2]: 31% | IC50 ([1]; read-out: IC50): 160 nM

C[C@@H]1CN(C(=O)CCS(=O)(=O)c2cccc3ncsc23)[C@@H](C)CN1c1ccc(C#N)cn1 (racemic)
IC50 ([1]; read-out: IC50): 330 nM

Cc1cc(F)cnc1N1CCN(C(=O)CCCc2cccc3ncccc23)[C@@H](C)C1
remaining at 0.25 h, 1 µM [2]: 0.2% | IC50 ([3]; read-out: pIC50 (converted)): 1260 nM | IC50 ([4]; read-out: pIC50 (converted)): 2000 nM | Papp A→B [5]: 8 ×10⁻⁶ cm/s

Cc1ccncc1N1CCN(C(=O)CCCc2cccc3ncccc23)[C@H](C)C1
IC50 ([1]; read-out: IC50): 20 nM

Cc1cc(F)cnc1N1CCN(C(=O)COCc2cccc3ncsc23)[C@@H](C)C1
IC50 ([1]; read-out: IC50): 3600 nM

CC1CN(C(=O)CCS(=O)(=O)c2cccc3ncsc23)CCN1c1ccc(C#N)cn1 (racemic)
IC50 ([1]; read-out: IC50): 5.8 nM

O=C(CCCc1cccc2ncccc12)N1CC2(C1)CN(c1ccc(F)cn1)C2
IC50 ([1]; read-out: IC50): > 20000 nM | IC50 ([1]; read-out: pIC50 (converted)): > 10000 nM

CC1(C)CN(c2ccc(C#N)cn2)CCN1C(=O)CCS(=O)(=O)c1cccc2ncsc12
IC50 ([1]; read-out: IC50): 4100 nM

N#Cc1ccc(N2C3CCC2CN(C(=O)CCS(=O)(=O)c2cccc4ncsc24)C3)nc1
Occ [6]: Active | concentration at 2 h [7]: 26 nM | Drug uptake(free) [8]: 0.12 nM | Cp(f) [9]: 2.9 nM | Cp(f) [10]: 117 nM | Drug uptake(free) [11]: 3.4 nM | Activity [12]: 40% | bioavailability [13]: 4.5% | AUC [14]: 21 ng·h/mL | AUC [15]: 100 ng·h/mL | half-life [16]: 54 min | CL free [17]: 273 mL/min/kg | clearance [18]: 56 mL/min/kg | IC50 [19]: > 10000 nM | IC50 [20]: > 10000 nM | IC50 [21]: > 10000 nM | fraction unbound [22]: 0.18 | fraction unbound [23]: 0.2 | microsomal CLint at 1 µM [24]: 21 µL/min/mg | microsomal CLint at 1 µM [25]: 23 µL/min/mg | Ki [26]: 0.84 nM | Ki [27]: 19 nM | Ki [28]: 0.14 nM | IC50 ([3]; read-out: IC50): 55 nM | IC50 ([4]; read-out: IC50): 200 nM | IC50 ([1]; read-out: IC50): 1.8 nM | Papp A→B [5]: 7.7 ×10⁻⁶ cm/s | microsomal CLint at 1 µM [29]: 42 µL/min/mg

Cc1cc(F)cnc1N1CCN(C(=O)CCCc2cccc3ncc(CO)cc23)[C@@H](C)C1
remaining at 0.25 h, 1 µM [2]: 1% | IC50 ([1]; read-out: IC50): > 170 nM | IC50 ([1]; read-out: pIC50 (converted)): 158 nM

Cc1cncc(Cl)c1N1CCN(C(=O)CCS(=O)(=O)c2cccc3ncsc23)CC1
IC50 ([1]; read-out: IC50): 8500 nM

Cc1cc(F)cnc1N1CCN(C(=O)CCCc2cccc3ncccc23)[C@H](C)C1
IC50 ([3]; read-out: pIC50 (converted)): 501 nM | IC50 ([4]; read-out: pIC50 (converted)): 631 nM

N#Cc1ccc(N2CC3CCC(C2)N3C(=O)CCS(=O)(=O)c2cccc3ncsc23)nc1
IC50 ([1]; read-out: IC50): 8.7 nM

O=C(CCNS(=O)(=O)c1cccc2ncccc12)N1CCN(c2ccncc2)CC1
IC50 ([1]; read-out: IC50): 130 nM

COc1cc(N2CCN(C(=O)CCCc3cccc4ncccc34)CC2)ccn1
IC50 ([1]; read-out: IC50): 300 nM

Cc1cc(F)cnc1N1CCN(C(=O)CCCc2cccc3cncnc23)[C@@H](C)C1
IC50 ([1]; read-out: IC50): > 20000 nM | IC50 ([1]; read-out: pIC50 (converted)): > 10000 nM

N#Cc1ccc(N2CC3CCC2CN3C(=O)CCS(=O)(=O)c2cccc3ncsc23)nc1 (racemic)
IC50 ([1]; read-out: IC50): 25 nM
